In ChEMBL document CHEMBL1201862, “PubChem BioAssay data set” (2004):
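Grown in 96-well plates, cells were treated for 48 hours with each compound at five concentrations. Insufficient inhibition: endpoint recorded as highest concentration tested. Here, GI50 denotes the concentration required for 50% inhibition of growth.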 Calls of active or inactive are those of the source. Rule as the data show it: active = GI50 up to about 1.1 µM and inactive = higher.

Columns and labels:
Assay in all cases: NCI anticancer screen, dose series, 48 h
RXF 631 = tested on: RXF 631
DLD-1 = tested on: DLD-1
LXFL 529 = tested on: LXFL 529
MDA-MB-435 = tested on: MDA-MB-435
SR = tested on: SR
MCF7 = tested on: MCF7
PC-3 = tested on: PC-3
786-0 = tested on: 786-0
BT-549 = tested on: BT-549

## CC1=NC(C(=O)O)Cc2c1[nH]c1ccccc21 (stereo not given)
RXF 631
  GI50: > 100 µM (inactive)
DLD-1
  GI50: > 100 µM (inactive)
LXFL 529
  GI50: > 100 µM (inactive)

## COc1ccc([C@H]2C=[N+]([O-])O[C@H](OC3CCCC3)[C@@H]2OC(C)=O)cc1OC
MDA-MB-435
  GI50: 25.4 µM (inactive)
SR
  GI50: 41.8 µM (inactive)
MCF7
  GI50: 22.3 µM (inactive)
PC-3
  GI50: 44.8 µM (inactive)

## CCOC(=O)c1csc(NC(=O)CCCC#N)n1
MDA-MB-435
  GI50: > 100 µM (inactive)
SR
  GI50: > 100 µM (inactive)
MCF7
  GI50: > 100 µM (inactive)
PC-3
  GI50: > 100 µM (inactive)

## O=C1CN(c2ccccc2)C(=O)C1C(=O)Nc1ccc(Cl)c(Cl)c1 (stereo not given)
RXF 631
  GI50: 3.59 µM (inactive)
SR
  GI50: 0.581 µM (active)
DLD-1
  GI50: 5.08 µM (inactive)
LXFL 529
  GI50: 1.65 µM (inactive)

## CC1(C)C2CCC3(OCCO3)C1C(O)C2 (stereo not given)
RXF 631
  GI50: > 100 µM (inactive)
DLD-1
  GI50: > 100 µM (inactive)
LXFL 529
  GI50: > 100 µM (inactive)
786-0
  GI50: > 100 µM (inactive)

## Cc1ccc([N+](=O)[O-])cc1/N=N/C(=O)NNc1cc([N+](=O)[O-])ccc1C
MDA-MB-435
  GI50: 22.2 µM (inactive)
SR
  GI50: 52.8 µM (inactive)
MCF7
  GI50: 26.4 µM (inactive)
PC-3
  GI50: 17.6 µM (inactive)
BT-549
  GI50: 22.5 µM (inactive)

## O=C(NNC(=S)NCc1ccccc1)C12CC3CC(CC(C3)C1)C2
MDA-MB-435
  GI50: 87.3 µM (inactive)
SR
  GI50: 9.33 µM (inactive)
MCF7
  GI50: 61.4 µM (inactive)
PC-3
  GI50: 25.8 µM (inactive)
786-0
  GI50: 96.8 µM (inactive)
BT-549
  GI50: > 100 µM (inactive)

## COc1cc2c(cc1OC)C(Cl)C(c1cc(OC)c(OC)c(OC)c1)=C2Cl (stereo not given)
RXF 631
  GI50: 18.8 µM (inactive)
DLD-1
  GI50: 19.4 µM (inactive)
LXFL 529
  GI50: 11.5 µM (inactive)

## CN(C)CCSc1nccc(-c2ccc(-c3ccnc(SCCN(C)C)n3)s2)n1
MCF7
  GI50: 4.45 µM (inactive)
DLD-1
  GI50: 4.81 µM (inactive)

## C1CCC2(CC1)O[C@@H]1[C@@H](O2)[C@@H](O[C@H]2O[C@@H]3COC4(CCCCC4)O[C@H]3[C@@H]3OC4(CCCCC4)O[C@@H]23)O[C@@H]2COC3(CCCCC3)O[C@@H]12
MDA-MB-435
  GI50: > 100 µM (inactive)
MCF7
  GI50: > 100 µM (inactive)
PC-3
  GI50: > 100 µM (inactive)
786-0
  GI50: > 100 µM (inactive)
BT-549
  GI50: > 100 µM (inactive)

## c1ccc(/N=C2/SC3=Nc4cccc5cccc(c45)N3/C2=N/c2ccccc2)cc1
MDA-MB-435
  GI50: > 100 µM (inactive)
SR
  GI50: > 100 µM (inactive)
MCF7
  GI50: > 100 µM (inactive)
PC-3
  GI50: > 100 µM (inactive)
BT-549
  GI50: > 100 µM (inactive)

## Cc1cc2c(C(C)C)c(O)c(O)c(/C=N/c3ccccc3)c2c(O)c1-c1c(C)cc2c(C(C)C)c(O)c(O)c(/C=N/c3ccccc3)c2c1O
SR
  GI50: > 100 µM (inactive)
DLD-1
  GI50: > 100 µM (inactive)
LXFL 529
  GI50: > 100 µM (inactive)

## CSC1NC(c2ccccc2)=C(C#N)C(=O)N1C1OCC(OC(C)=O)C(OC(C)=O)C1OC(C)=O (stereo not given)
MDA-MB-435
  GI50: > 100 µM (inactive)
SR
  GI50: > 100 µM (inactive)
MCF7
  GI50: > 100 µM (inactive)
PC-3
  GI50: > 100 µM (inactive)
786-0
  GI50: > 100 µM (inactive)
BT-549
  GI50: > 100 µM (inactive)

## COc1ccc2c(C)cc(N/N=C/c3sccc3C)nc2c1
MDA-MB-435
  GI50: 16.6 µM (inactive)
SR
  GI50: 22.9 µM (inactive)
MCF7
  GI50: 11.4 µM (inactive)
PC-3
  GI50: 12.9 µM (inactive)
BT-549
  GI50: 13.1 µM (inactive)

## COC(=O)c1cccc(C(=O)OC)c1
SR
  GI50: > 100 µM (inactive)
DLD-1
  GI50: > 100 µM (inactive)
LXFL 529
  GI50: > 100 µM (inactive)

## CCOC(=O)NC(=O)c1cn(CCSCCOC(=O)NCCCCCCNC(=O)OCCSCCn2cc(C(=O)NC(=O)OCC)c(=O)[nH]c2=O)c(=O)[nH]c1=O
DLD-1
  GI50: > 100 µM (inactive)

## NC1(C(=O)O)CCc2ccc(N(CCCl)CCCl)cc2C1 (stereo not given)
MCF7
  GI50: 33.8 µM (inactive)
DLD-1
  GI50: > 100 µM (inactive)
